Laboratory results: the supplement of paper PMC10307832

Columns and labels:
Assay in all cases: relative viability (nuclei count vs DMSO), 5 days (fraction); higher = more cells survive
[1] = compound: CCN(CCO)CCCC(C)Nc1ccnc2cc(Cl)ccc12 [Hydroxychloroquine] + N=C(N)NC(=N)NCCc1ccccc1 [Phenformin] (partner 250 µM)
How it was run: (§1)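 Lung cancer cell lines in 1536-well plates got either a single drug or a fixed anchor-drug dose together with five library-drug doses (not always all listed) in √10 steps, by pin tool, on the day after seeding. Nuclei were counted after 5 days, and relative viability is the treated-to-vehicle ratio of nuclei counts. Values are medians of duplicate plates.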

[2] = compound: CCN(CCO)CCCC(C)Nc1ccnc2cc(Cl)ccc12 [Hydroxychloroquine] + CC(=O)Nc1cccc(-n2c(=O)n(C3CC3)c(=O)c3c(Nc4ccc(I)cc4F)n(C)c(=O)c(C)c32)c1 [Trametinib] (partner 0.02 µM)
How it was run: as §1

[3] = compound: CCN(CCO)CCCC(C)Nc1ccnc2cc(Cl)ccc12 [Hydroxychloroquine] + CC1(C)CCC(c2ccc(Cl)cc2)=C(CN2CCN(c3ccc(C(=O)NS(=O)(=O)c4ccc(N[C@H](CCN5CCOCC5)CSc5ccccc5)c(S(=O)(=O)C(F)(F)F)c4)cc3)CC2)C1 [Navitoclax] (partner 0.5 µM)
How it was run: as §1

[4] = compound: CCN(CCO)CCCC(C)Nc1ccnc2cc(Cl)ccc12 [Hydroxychloroquine] + Nc1nc2[nH]cc(CCc3ccc(C(=O)N[C@@H](CCC(=O)O)C(=O)O)cc3)c2c(=O)[nH]1 [Pemetrexed] (partner 0.2 µM)
How it was run: as §1

| Cell Line | relative viability ([1]; first compound 0.5 µM) | relative viability ([1]; first compound 1.581 µM) | relative viability ([1]; first compound 5 µM) | relative viability ([1]; first compound 15.81 µM) | relative viability ([1]; first compound 50 µM) | relative viability ([2]; first compound 0.5 µM) | relative viability ([2]; first compound 1.581 µM) | relative viability ([2]; first compound 5 µM) | relative viability ([2]; first compound 15.81 µM) | relative viability ([2]; first compound 50 µM) | relative viability ([3]; first compound 0.5 µM) | relative viability ([3]; first compound 1.581 µM) | relative viability ([3]; first compound 5 µM) | relative viability ([3]; first compound 15.81 µM) | relative viability ([3]; first compound 50 µM) | relative viability ([4]; first compound 0.5 µM) | relative viability ([4]; first compound 1.581 µM) | relative viability ([4]; first compound 5 µM) | relative viability ([4]; first compound 15.81 µM) | relative viability ([4]; first compound 50 µM) |
| --- | --- | --- | --- | --- | --- | --- | --- | --- | --- | --- | --- | --- | --- | --- | --- | --- | --- | --- | --- | --- |
| NCI-H460 | 0.506 | 0.533 | 0.577 | 0.518 | 0.635 | 0.203 | 0.11 | 0.119 | 0.187 | 0.13 | 1.24 | 1.35 | 1.19 | 1.36 | 1.41 | 0.0632 | 0.055 | 0.0674 | 0.0549 | 0.0607 |
| NCI-H1793 | 0.38 | 0.325 | 0.364 | 0.351 | 0.36 | 0.405 | 0.463 | 0.475 | 0.416 | 0.344 | 0.331 | 0.32 | 0.404 | 0.389 | 0.547 | 0.982 | 0.913 | 0.753 | 0.628 | 0.632 |
| NCI-H23 | 0.803 | 0.76 | 0.806 | 0.797 | 0.829 | 0.387 | 0.387 | 0.364 | 0.36 | 0.327 | 0.841 | 0.822 | 0.842 | 0.732 | 0.953 | 1.21 | 0.663 | 0.609 | 0.56 | 0.74 |
| HARA | 0.475 | 0.406 | 0.519 | 0.442 | 0.465 | 0.725 | 0.975 | 0.88 | 0.704 | 0.613 | 1.14 | 1.15 | 1.14 | 1.2 | 1.12 | 0.286 | 0.231 | 0.233 | 0.263 | 0.251 |
| NCI-H1792 | 0.529 | 0.261 | 0.258 | 0.102 | 0.371 | 0.496 | 0.464 | 0.474 | 0.387 | 0.378 | 0.509 | 0.607 | 0.686 | 0.367 | 0.451 | 0.694 | 0.831 | 0.755 | 0.641 | 0.859 |
| NCI-H1703 |  |  |  |  |  |  |  |  |  |  | 1.08 | 0.934 | 1.02 | 1.02 | 1.29 |  |  |  |  |  |
| NCI-H2342 | 0.59 | 0.588 | 0.561 | 0.619 | 0.645 | 0.868 | 0.923 | 0.908 | 0.804 | 0.881 |  |  |  |  |  | 0.744 | 0.695 | 0.75 | 0.81 | 0.906 |
| CAL-12T | 0.585 | 0.593 | 0.587 | 0.599 | 0.519 | 0.268 | 0.265 | 0.326 | 0.338 | 0.32 | 1.06 | 1.22 | 1.21 | 1.23 | 1.23 | 1.15 | 1.18 | 1.31 | 1.27 | 1.33 |
| NCI-H838 | 0.636 | 0.561 | 0.548 | 0.595 | 0.613 | 0.566 | 0.458 | 0.552 | 0.519 | 0.606 | 1.16 | 1.11 | 1.13 | 1.14 | 1.24 | 0.238 | 0.248 | 0.264 | 0.243 | 0.253 |
| NCI-H2085 | 0.762 | 0.509 | 0.688 | 0.727 | 0.692 | 0.7 | 0.527 | 0.619 | 0.518 | 0.53 | 1.03 | 1.04 | 1.25 | 1.03 | 1.2 | 0.885 | 0.773 | 0.838 | 0.809 | 0.9 |
| NCI-H1395 | 0.465 | 0.445 | 0.451 | 0.456 | 0.43 | 1.09 | 0.972 | 0.862 | 1.02 | 0.949 | 1.21 | 1.05 | 1.17 | 1.18 | 1.01 | 0.83 | 0.936 | 0.717 | 0.793 | 0.779 |
| NCI-H1648 |  |  |  |  |  | 0.499 | 0.434 | 0.437 | 0.57 | 0.414 |  |  |  |  |  | 0.844 | 0.785 | 0.734 | 0.859 | 0.694 |
| NCI-H520 | 0.539 | 0.403 | 0.649 | 0.683 | 0.628 | 0.692 | 0.658 | 0.589 | 0.628 | 0.844 | 1.12 | 1.16 | 1.13 | 1.03 | 1.2 | 0.76 | 0.729 | 0.596 | 0.657 | 0.798 |
| A549 | 0.154 | 0.0895 | 0.15 | 0.14 | 0.154 |  |  |  |  |  | 1.24 | 1.09 | 1.26 | 1.29 | 1.19 |  |  |  |  |  |
| IA-LM |  |  |  |  |  |  |  |  |  |  | 0.764 | 0.79 | 0.832 | 0.798 | 0.847 |  |  |  |  |  |
| EKVX | 0.249 | 0.192 | 0.249 | 0.243 | 0.208 | 0.348 | 0.302 | 0.316 | 0.637 | 0.352 | 1.1 | 0.919 | 1.07 | 1.04 | 0.943 | 0.385 | 0.394 | 0.32 | 0.385 | 0.423 |
| ChaGo-K-1 | 0.509 | 0.542 | 0.438 | 0.501 | 0.522 | 0.962 | 0.916 | 0.865 | 0.853 | 0.891 | 1.22 | 0.685 | 0.687 | 1.06 | 1 | 0.417 | 0.259 | 0.291 | 0.262 | 0.276 |
| NCI-H1755 | 0.628 | 0.529 | 0.63 | 0.636 | 0.572 | 0.743 | 0.729 | 0.776 | 0.726 | 0.732 | 1.03 | 0.905 | 0.933 | 0.972 | 0.926 | 0.573 | 0.426 | 0.42 | 0.386 | 0.438 |
| NCI-H2228 | 0.265 | 0.342 | 0.348 | 0.407 | 0.292 | 0.322 | 0.421 | 0.654 | 0.584 | 0.365 | 0.671 | 0.717 | 1.04 | 0.78 | 1.16 | 0.329 | 0.352 | 0.348 | 0.311 | 0.331 |
